# How the values were obtained:
# [1] = pH of quaternary compounds, fatty acids and their reaction products in water (calibrated pH meter); assay type: physicochemical; conditions: for pH of product compound (reaction of quaternary compound with fatty acid): molar ratio DDAC to fatty acid 1:1, 70-75 °C, after 10 minutes
# Description: Example 2 was repeated employing the fatty acids; Conjugated Linoleic Acid (CLA); eicosapentaenoic acid (EPA); and gamma linolenic acid (GLA), were all dissolved in water and the pH of the resulting solutions were measured with a calibrated pH meter.
# Three solutions of DDAC (188.2 g) in distilled water (2,000 g) were contacted with masses of CLA, EPA and GLA, such that the molar ratio of DDAC to each of the aforementioned fatty acids was 1:1 at a temperature of 70° C. to 75° C. and after 10 minutes the pH of the reaction products of each of these products was measured.
# Merquat 550 is a trademark owned by Calgon, Inc. its manufacturer, for a proprietary cationic polymer having a repeating unit molecular weight of 680 and an overall molecular weight of about 10,000. The pH of these first transdermal compositions were measured. […] Ten minutes after acid addition, the pH of the product composition were measured.
# open wounds = test: Seventh transdermal composition on open wounds of patients (healing, pain); assay type: in vivo
# Excerpt: As one skilled in the art can well appreciate there are endless numbers of combinations that can be made to create the desired skin effects. For example, when the quaternary ammonium salt, such as […] (DDAC), and the like, is present in a neutral pH in the first transdermal composition of the present invention described hereinabove, the formic acid from the bug bite is more effectively and more rapidly neutralized. On the other hand, when the quaternary ammonium salt, e.g., DDAC, is present in the seventh transdermal composition of the present invention, the healing rate on open wounds improves. However, when the quaternary ammonium salt, e.g., DDAC, is not substantially converted to the first reaction product, some of the patients, approximately 25% thereof, feel pain.
# [2] = Stability of benzethonium chloride added to the transdermal mixtures; assay type: physicochemical
# Description: When benzethonium chloride is added in therapeutically effective amounts to the mixtures described herein, it is stable if added at ambient temperature at a pH greater than 6. On the other hand, it is not stable if added at temperatures below the Freezing Zone and above ambient temperature at a pH of about 7.5 to about 8.
# [3] = DDAC split between first reaction product (80%) and unreacted DDAC (20%)
compound,measurement,setting,value
dimethyl distearyl ammonium stearate [DDAS],pH of product compound (reaction of quaternary compound with fatty acid),[1],2.38
"CCCCCCCCCCCCCCCCCC[N+](C)(C)CCCCCCCCCCCCCCCCCC.[Cl-] [DDAC, dimethyl distearyl ammonium chloride]",pH of quaternary compound in water,"[1]; DDAC 188.2 g in distilled water 2,000 g",5.38
same,Patients who feel pain,open wounds; DDAC not substantially converted to the first reaction product,approximately 25%
same,Healing,open wounds; [3],rapid healing
same,Pain,open wounds; [3],did not feel pain
benzalkonium chloride [BAC],pH of Quat and Stearic Acid,"[1]; 70-75 °C, stearic acid 40 g, ten minutes after acid addition",2.40
same,pH of quaternary compound,"[1]; mixed with distilled water (2,000 g), before heating",7.83
"CC/C=C\C/C=C\C/C=C\CCCCCCCC(=O)[O-].CCCCCCCCCCCCCCCCCC[N+](C)(C)CCCCCCCCCCCCCCCCCC [DDAL, Dimethyl Distearyl Ammonium Linolenate]",pH of product compound (reaction of quaternary compound with fatty acid),[1],2.28
Conjugated Linoleic Acid [CLA],pH of fatty acid dissolved in water,[1]; fatty acid alone in water,(4.00)
CC(C)(C)CC(C)(C)c1ccc(OCCOCC[N+](C)(C)Cc2ccccc2)cc1 [benzethonium chloride],Stability of benzethonium chloride in the mixture,"[2]; added above the Freezing Zone, tip speed greater than Critical Shear Rate, pH about 7.5 to about 8",stable
same,Stability of benzethonium chloride in the mixture,[2]; added at ambient temperature at pH greater than 6,stable
same,Stability of benzethonium chloride in the mixture,[2]; added below the Freezing Zone and above ambient temperature at pH about 7.5 to about 8,not stable

# Source: US7888393B2, “Transdermal compositions” (Microdermis Corporation, priority 2002, dated 2011)
